Assay results from ChEMBL document CHEMBL3758169, “4-Aminoindazolyl-dihydrofuro[3,4-d]pyrimidines as non-covalent inhibitors of mutant epidermal growth factor receptor tyrosine kinase” (Bioorg Med Chem Lett, 2016).

Legend:
[1] = biological target: Dual specificity mitogen-activated protein kinase kinase 3 (Homo sapiens) (UniProt P46734); experiment: Inhibition of MEK3 (unknown origin) at 100 nM
[2] = biological target: Maternal embryonic leucine zipper kinase (Homo sapiens) (UniProt Q14680); experiment: Inhibition of MELK (unknown origin) at 100 nM
[3] = species: Homo sapiens; experiment: Inhibition of MKK6 S207E/T211E double mutant (unknown origin) at 100 nM
[4] = biological target: Mitogen-activated protein kinase kinase kinase 10 (Homo sapiens) (UniProt Q02779); experiment: Inhibition of MLK2 (unknown origin) at 100 nM
[5] = biological target: Serine/threonine-protein kinase MRCK beta (Homo sapiens) (UniProt Q9Y5S2); experiment: Inhibition of MRCKbeta (unknown origin) at 100 nM
[6] = biological target: Myosin light chain kinase (Homo sapiens) (UniProt Q32MK0); experiment: Inhibition of MYLK3 (unknown origin) at 100 nM
[7] = biological target: Muscle, skeletal receptor tyrosine-protein kinase (Homo sapiens) (UniProt O15146); experiment: Inhibition of MUSK (unknown origin) at 100 nM
[8] = biological target: Serine/threonine-protein kinase Nek4 (Homo sapiens) (UniProt P51957); experiment: Inhibition of NEK4 (unknown origin) at 100 nM
[9] = biological target: Serine/threonine-protein kinase Nek9 (Homo sapiens) (UniProt Q8TD19); experiment: Inhibition of NEK9 (unknown origin) at 100 nM
Chain of Serine/threonine-protein kinase Nek9 (Homo sapiens) (Q8TD19 whole entry): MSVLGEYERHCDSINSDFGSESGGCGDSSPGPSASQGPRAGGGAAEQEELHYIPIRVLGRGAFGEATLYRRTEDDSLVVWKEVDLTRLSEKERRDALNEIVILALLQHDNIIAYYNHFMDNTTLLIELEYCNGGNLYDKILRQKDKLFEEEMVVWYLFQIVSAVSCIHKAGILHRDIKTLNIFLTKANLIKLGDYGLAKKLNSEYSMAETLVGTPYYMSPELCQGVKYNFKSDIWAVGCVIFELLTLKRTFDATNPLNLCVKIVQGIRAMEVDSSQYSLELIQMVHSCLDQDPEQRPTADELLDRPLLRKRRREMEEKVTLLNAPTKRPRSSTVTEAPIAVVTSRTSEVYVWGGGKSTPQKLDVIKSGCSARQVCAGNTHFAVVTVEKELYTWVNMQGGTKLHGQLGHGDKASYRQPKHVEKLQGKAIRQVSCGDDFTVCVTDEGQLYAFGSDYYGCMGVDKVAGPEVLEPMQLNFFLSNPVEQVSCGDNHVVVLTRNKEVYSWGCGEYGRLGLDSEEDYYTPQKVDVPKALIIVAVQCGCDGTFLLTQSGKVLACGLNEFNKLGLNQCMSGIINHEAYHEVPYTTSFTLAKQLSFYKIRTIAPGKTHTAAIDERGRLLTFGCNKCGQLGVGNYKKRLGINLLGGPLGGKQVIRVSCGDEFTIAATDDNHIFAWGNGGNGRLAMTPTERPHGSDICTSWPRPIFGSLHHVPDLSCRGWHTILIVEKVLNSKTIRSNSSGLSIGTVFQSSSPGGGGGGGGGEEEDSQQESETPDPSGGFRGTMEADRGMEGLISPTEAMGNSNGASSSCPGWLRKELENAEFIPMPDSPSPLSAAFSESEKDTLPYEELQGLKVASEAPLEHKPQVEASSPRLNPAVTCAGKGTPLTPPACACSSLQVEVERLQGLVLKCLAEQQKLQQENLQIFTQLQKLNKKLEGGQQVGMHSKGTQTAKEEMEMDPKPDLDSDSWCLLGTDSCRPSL

[10] = biological target: Serine/threonine-protein kinase PAK 6 (Homo sapiens) (UniProt Q9NQU5); experiment: Inhibition of PAK6 (unknown origin) at 100 nM
Chain of Serine/threonine-protein kinase PAK 6 (Homo sapiens) (Q9NQU5 whole entry, looked up): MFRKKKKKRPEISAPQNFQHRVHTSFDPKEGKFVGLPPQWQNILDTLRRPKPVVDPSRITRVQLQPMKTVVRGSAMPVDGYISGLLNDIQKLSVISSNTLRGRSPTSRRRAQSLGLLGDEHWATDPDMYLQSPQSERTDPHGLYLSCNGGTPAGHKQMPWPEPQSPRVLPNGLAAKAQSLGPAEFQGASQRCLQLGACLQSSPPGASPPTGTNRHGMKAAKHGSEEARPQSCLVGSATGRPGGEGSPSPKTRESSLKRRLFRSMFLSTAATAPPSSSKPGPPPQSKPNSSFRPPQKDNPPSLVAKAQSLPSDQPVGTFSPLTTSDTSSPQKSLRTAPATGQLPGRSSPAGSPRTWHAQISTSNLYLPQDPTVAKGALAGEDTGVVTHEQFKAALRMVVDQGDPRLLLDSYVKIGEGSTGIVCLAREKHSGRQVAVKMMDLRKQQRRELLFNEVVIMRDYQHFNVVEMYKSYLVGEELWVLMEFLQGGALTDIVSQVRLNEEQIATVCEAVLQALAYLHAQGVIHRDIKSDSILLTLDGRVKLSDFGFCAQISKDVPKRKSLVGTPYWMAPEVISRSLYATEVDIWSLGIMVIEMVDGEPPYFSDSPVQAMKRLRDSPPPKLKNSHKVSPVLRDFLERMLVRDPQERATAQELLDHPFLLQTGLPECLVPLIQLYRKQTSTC

[11] = biological target: Serine/threonine-protein kinase PAK 5 (Homo sapiens) (UniProt Q9P286); experiment: Inhibition of PAK7 (unknown origin) at 100 nM
[12] = biological target: Phosphatidylinositol 4-phosphate 3-kinase C2 domain-containing subunit alpha (Homo sapiens) (UniProt O00443); experiment: Inhibition of PI3KC2A (unknown origin) at 100 nM
[13] = biological target: Phosphatidylinositol 4-kinase beta (Homo sapiens) (UniProt Q9UBF8); experiment: Inhibition of PI4Kb (unknown origin) at 100 nM
[14] = biological target: Protein kinase C iota type (Homo sapiens) (UniProt P41743); experiment: Inhibition of PKCiota (unknown origin) at 100 nM
[15] = biological target: 5'-AMP-activated protein kinase catalytic subunit alpha-2 (Homo sapiens) (UniProt P54646); experiment: Inhibition of PRKAA2 (unknown origin) at 100 nM
Chain of 5'-AMP-activated protein kinase catalytic subunit alpha-2 (Homo sapiens) (P54646 whole entry, looked up): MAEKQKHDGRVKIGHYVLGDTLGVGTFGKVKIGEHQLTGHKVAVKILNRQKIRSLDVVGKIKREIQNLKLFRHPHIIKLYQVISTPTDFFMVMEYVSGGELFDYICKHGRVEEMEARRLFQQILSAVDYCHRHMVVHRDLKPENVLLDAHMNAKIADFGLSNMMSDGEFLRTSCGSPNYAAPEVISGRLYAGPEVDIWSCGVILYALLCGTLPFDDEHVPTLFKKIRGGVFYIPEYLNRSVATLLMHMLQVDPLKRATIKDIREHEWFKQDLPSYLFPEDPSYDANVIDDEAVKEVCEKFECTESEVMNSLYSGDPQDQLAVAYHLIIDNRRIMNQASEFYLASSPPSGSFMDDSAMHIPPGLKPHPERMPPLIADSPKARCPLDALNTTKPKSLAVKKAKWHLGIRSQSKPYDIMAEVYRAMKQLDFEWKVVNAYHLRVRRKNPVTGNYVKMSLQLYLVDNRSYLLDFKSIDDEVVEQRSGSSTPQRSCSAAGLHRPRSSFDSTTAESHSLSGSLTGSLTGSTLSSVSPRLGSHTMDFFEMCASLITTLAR

[16] = biological target: Serine/threonine-protein kinase Sgk1 (Homo sapiens) (UniProt O00141); experiment: Inhibition of SGK1 (unknown origin) at 100 nM
[17] = biological target: STE20-like serine/threonine-protein kinase (Homo sapiens) (UniProt Q9H2G2); experiment: Inhibition of SLK (unknown origin) at 100 nM
[18] = biological target: Serine/threonine-protein kinase 16 (Homo sapiens) (UniProt O75716); experiment: Inhibition of STK16 (unknown origin) at 100 nM
Chain of Serine/threonine-protein kinase 16 (Homo sapiens) (O75716 whole entry): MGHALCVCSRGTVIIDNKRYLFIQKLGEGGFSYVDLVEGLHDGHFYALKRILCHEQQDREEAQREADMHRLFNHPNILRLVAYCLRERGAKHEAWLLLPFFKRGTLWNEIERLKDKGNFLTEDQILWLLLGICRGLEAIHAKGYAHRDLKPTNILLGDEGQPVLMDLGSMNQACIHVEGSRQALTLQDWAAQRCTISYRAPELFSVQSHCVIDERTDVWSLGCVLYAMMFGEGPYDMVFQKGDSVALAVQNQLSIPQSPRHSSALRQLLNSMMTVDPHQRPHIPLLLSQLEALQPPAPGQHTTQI

[19] = species: Homo sapiens; experiment: Inhibition of SRM (unknown origin) at 100 nM
[20] = biological target: Serine/threonine-protein kinase TAO3 (Homo sapiens) (UniProt Q9H2K8); experiment: Inhibition of TAO3 (unknown origin) at 100 nM
[21] = biological target: Epidermal growth factor receptor (Homo sapiens, UniProt P00533, L858R/T790M); experiment: Inhibition of EGFR T790M/L858R mutant autophosphorylation in human H1975 cells; format: cell-based
[22] = Total AUC in rat at 5 mg/kg, po; format: ADME, organism-based; set-up: dose 5 mg/kg, time AUCmax, route oral; conditions: in vivo
[23] = biological target: Mitogen-activated protein kinase kinase kinase 5 (Homo sapiens) (UniProt Q99683); experiment: Inhibition of ASK1 (unknown origin) at 100 nM
Chain of Mitogen-activated protein kinase kinase kinase 5 (Homo sapiens) (Q99683 whole entry): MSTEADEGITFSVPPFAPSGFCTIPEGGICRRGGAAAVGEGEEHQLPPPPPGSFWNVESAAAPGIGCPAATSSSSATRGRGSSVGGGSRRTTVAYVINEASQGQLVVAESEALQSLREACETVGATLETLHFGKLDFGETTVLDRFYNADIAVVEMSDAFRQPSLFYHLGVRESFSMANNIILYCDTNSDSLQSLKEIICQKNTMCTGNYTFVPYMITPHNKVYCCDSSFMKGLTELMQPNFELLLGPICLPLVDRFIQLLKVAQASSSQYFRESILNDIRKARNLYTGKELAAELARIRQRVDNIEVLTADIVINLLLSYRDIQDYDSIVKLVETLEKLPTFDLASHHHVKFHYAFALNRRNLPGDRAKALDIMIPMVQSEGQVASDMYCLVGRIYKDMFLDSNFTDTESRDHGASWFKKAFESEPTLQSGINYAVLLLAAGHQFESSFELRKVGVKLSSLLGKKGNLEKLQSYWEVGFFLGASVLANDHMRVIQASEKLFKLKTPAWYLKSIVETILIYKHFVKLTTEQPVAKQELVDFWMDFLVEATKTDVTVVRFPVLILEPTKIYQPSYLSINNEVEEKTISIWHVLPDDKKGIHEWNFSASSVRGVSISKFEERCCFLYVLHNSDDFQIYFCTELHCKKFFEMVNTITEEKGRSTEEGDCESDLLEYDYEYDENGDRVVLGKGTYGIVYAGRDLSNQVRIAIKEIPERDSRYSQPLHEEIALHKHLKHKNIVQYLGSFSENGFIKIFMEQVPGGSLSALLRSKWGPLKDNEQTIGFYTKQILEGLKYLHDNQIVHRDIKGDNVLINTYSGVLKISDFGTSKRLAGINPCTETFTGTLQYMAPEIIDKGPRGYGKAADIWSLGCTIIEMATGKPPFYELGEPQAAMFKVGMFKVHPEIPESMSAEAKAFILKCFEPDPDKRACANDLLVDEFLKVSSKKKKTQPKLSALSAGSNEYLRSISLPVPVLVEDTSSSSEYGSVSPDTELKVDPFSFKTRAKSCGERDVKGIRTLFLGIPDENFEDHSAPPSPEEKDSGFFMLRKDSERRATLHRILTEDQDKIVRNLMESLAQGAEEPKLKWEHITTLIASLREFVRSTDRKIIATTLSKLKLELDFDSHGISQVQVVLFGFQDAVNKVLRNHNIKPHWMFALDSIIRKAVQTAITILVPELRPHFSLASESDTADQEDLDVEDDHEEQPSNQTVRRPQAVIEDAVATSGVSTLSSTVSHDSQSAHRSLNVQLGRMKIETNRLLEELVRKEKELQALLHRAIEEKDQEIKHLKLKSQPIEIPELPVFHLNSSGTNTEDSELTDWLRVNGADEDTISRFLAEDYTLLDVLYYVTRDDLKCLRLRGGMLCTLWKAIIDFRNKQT

[24] = biological target: Tyrosine-protein kinase Blk (Homo sapiens) (UniProt P51451); experiment: Inhibition of BLK (unknown origin) at 100 nM
[25] = biological target: Cyclin-dependent kinase 5/CDK5 activator 1 (Homo sapiens) (UniProt Q00535+Q15078); experiment: Inhibition of CDK5/p35 (unknown origin) at 100 nM; format: protein-complex assay
[26] = biological target: Casein kinase I isoform delta (Homo sapiens) (UniProt P48730); experiment: Inhibition of CK1delta (unknown origin) at 100 nM
[27] = biological target: Casein kinase I isoform epsilon (Homo sapiens) (UniProt P49674); experiment: Inhibition of CK1epsilon1 (unknown origin) at 100 nM
[28] = biological target: Dual specificity protein kinase CLK3 (Homo sapiens) (UniProt P49761); experiment: Inhibition of CLK3 (unknown origin) at 100 nM
[29] = biological target: Calcium/calmodulin-dependent protein kinase type II subunit beta (Homo sapiens) (UniProt Q13554); experiment: Inhibition of CaMKIIbeta (unknown origin) at 100 nM
[30] = biological target: Dual specificity tyrosine-phosphorylation-regulated kinase 1B (Homo sapiens) (UniProt Q9Y463); experiment: Inhibition of DYRK1B (unknown origin) at 100 nM
[31] = biological target: Dual specificity tyrosine-phosphorylation-regulated kinase 3 (Homo sapiens) (UniProt O43781); experiment: Inhibition of DYRK3 (unknown origin) at 100 nM
[32] = biological target: Ephrin type-A receptor 1 (Homo sapiens) (UniProt P21709); experiment: Inhibition of EPHA1 (unknown origin) at 100 nM
[33] = biological target: Ephrin type-A receptor 5 (Homo sapiens) (UniProt P54756); experiment: Inhibition of EPHA5 (unknown origin) at 100 nM
[34] = biological target: Ephrin type-B receptor 4 (Homo sapiens) (UniProt P54760); experiment: Inhibition of EPHB4 (unknown origin) at 100 nM
[35] = biological target: Receptor tyrosine-protein kinase erbB-4 (Homo sapiens) (UniProt Q15303); experiment: Inhibition of ERBB4 (unknown origin) at 100 nM
[36] = biological target: Glycogen synthase kinase-3 alpha (Homo sapiens) (UniProt P49840); experiment: Inhibition of GSK3aplha (unknown origin) at 100 nM
[37] = biological target: Homeodomain-interacting protein kinase 1 (Homo sapiens) (UniProt Q86Z02); experiment: Inhibition of HIPK1 (unknown origin) at 100 nM
Chain of Homeodomain-interacting protein kinase 1 (Homo sapiens) (Q86Z02 whole entry, looked up): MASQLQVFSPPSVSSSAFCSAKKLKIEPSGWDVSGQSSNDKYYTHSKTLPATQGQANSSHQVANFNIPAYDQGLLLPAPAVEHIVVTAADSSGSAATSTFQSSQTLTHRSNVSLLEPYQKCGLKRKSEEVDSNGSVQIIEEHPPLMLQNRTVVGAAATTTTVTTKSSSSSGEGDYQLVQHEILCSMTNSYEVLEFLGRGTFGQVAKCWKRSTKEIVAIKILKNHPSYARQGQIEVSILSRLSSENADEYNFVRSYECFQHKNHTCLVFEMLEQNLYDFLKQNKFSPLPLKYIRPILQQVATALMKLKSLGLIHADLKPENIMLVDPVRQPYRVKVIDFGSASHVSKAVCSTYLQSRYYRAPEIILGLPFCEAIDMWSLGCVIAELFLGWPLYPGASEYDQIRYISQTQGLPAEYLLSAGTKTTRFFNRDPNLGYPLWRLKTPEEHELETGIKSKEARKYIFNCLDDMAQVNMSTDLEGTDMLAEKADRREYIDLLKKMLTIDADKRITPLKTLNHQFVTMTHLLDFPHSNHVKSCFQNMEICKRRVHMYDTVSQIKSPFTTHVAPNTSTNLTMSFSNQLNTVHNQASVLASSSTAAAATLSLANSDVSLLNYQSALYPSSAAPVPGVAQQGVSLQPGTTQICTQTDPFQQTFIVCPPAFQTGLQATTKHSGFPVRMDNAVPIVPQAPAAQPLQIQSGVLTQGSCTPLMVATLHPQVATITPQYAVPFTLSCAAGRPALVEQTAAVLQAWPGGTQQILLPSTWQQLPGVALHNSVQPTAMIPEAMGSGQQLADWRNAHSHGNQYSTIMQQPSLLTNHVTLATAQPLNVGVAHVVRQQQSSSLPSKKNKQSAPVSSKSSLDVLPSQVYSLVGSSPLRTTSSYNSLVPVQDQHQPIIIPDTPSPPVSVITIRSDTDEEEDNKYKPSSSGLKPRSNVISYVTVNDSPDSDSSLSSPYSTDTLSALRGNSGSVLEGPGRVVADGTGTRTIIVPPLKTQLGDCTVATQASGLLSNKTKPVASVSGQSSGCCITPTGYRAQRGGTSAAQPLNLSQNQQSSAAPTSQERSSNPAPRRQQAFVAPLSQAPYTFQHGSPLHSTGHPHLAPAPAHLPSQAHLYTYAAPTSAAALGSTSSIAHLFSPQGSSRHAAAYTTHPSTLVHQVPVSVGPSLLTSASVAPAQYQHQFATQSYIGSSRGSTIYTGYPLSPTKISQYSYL

[38] = biological target: Homeodomain-interacting protein kinase 2 (Homo sapiens) (UniProt Q9H2X6); experiment: Inhibition of HIPK2 (unknown origin) at 100 nM
[39] = biological target: Homeodomain-interacting protein kinase 4 (Homo sapiens) (UniProt Q8NE63); experiment: Inhibition of HIPK4 (unknown origin) at 100 nM
[40] = biological target: Serine/threonine-protein kinase haspin (Homo sapiens) (UniProt Q8TF76); experiment: Inhibition of Haspin (unknown origin) at 100 nM
[41] = biological target: Tyrosine-protein kinase HCK (Homo sapiens) (UniProt P08631); experiment: Inhibition of HCK (unknown origin) at 100 nM
[42] = biological target: LIM domain kinase 1 (Homo sapiens) (UniProt P53667); experiment: Inhibition of LIMK1 (unknown origin) at 100 nM
[43] = tested on: Hepatocyte; experiment: Drug metabolism in rat hepatocytes assessed as glucuronidation; format: ADME, cell-based
[44] = biological target: Mitogen-activated protein kinase kinase kinase kinase 2 (Homo sapiens) (UniProt Q12851); experiment: Inhibition of GCK (unknown origin) at 100 nM

Q: What does the source list for CC1(C)OCc2c(Nc3n[nH]c4ccccc34)nc(-c3cn[nH]c3)nc21?
A: inhibition [1]: 14.1%; inhibition [2]: 12.3%; inhibition [3]: 10.2%; inhibition [4]: 2.3%; inhibition [5]: -3.9%; inhibition [6]: 20.6%; inhibition [7]: 3.5%; inhibition [8]: 2%; inhibition [9]: -0.2%; inhibition [10]: -0.3%; inhibition [11]: -1.8%; inhibition [12]: 2.9%; inhibition [13]: 10.1%; inhibition [14]: -1.5%; inhibition [15]: 10.9%; inhibition [16]: -5.2%; inhibition [17]: 66%; inhibition [18]: 29.5%; inhibition [19]: 17.3%; inhibition [20]: 6.2%; IC50 [21]: 600 nM; AUC [22]: 0.37 µM·h; inhibition [23]: 4.2%; inhibition [24]: 67.7%; inhibition [25]: 3.1%; inhibition [26]: 13.1%; inhibition [27]: 5.1%; inhibition [28]: 3.3%; inhibition [29]: 11.2%; inhibition [30]: -1.6%; inhibition [31]: -3.5%; inhibition [32]: 16.1%; inhibition [33]: 15.7%; inhibition [34]: 40.7%; inhibition [35]: 89.9%; inhibition [36]: 30.8%; inhibition [37]: -2%; inhibition [38]: 1.3%; inhibition [39]: 5.1%; inhibition [40]: 8.1%; inhibition [41]: 65.6%; inhibition [42]: 3.1%

Q: With CC1(C)OCc2c(Nc3n[nH]c4c(Cl)cccc34)nc(-c3cn[nH]c3)nc21 as the compound, how does the Drug metabolism [43] read?
A: metabolite_detected

Q: What about the inhibition [44] of the same compound?
A: 6.4%
